# Experimental data as given in patent publication US20170329062A1, “OPTICAL FILM AND FLEXIBLE DEVICE USING THE OPTICAL FILM” (SUMITOMO CHEMICAL COMPANY, LIMITED, priority 2016, published 2017).
# Assays:
# [1] = Molar extinction coefficient of ultraviolet absorbent in 20 mg/L toluene solution; assay type: physicochemical
# Protocol: (manufactured by JASCO Corporation) Measured Concentration: 20 mg/L Solvent: toluene
# [2] = Solubility of ultraviolet absorbent in N,N-dimethylacetamide at 25° C.; assay type: physicochemical
SMILES,Molar extinction coefficient 360 nm [1],Molar extinction coefficient 370 nm [1],Molar extinction coefficient 380 nm [1],Molar extinction coefficient 390 nm [1],Molar extinction coefficient 400 nm [1] [L/mol/cm],Molar extinction coefficient 420 nm [1] [L/mol/cm],Solubility at 25° C. with respect to DMAc [2] [g/100 g-DMAc]
"CC(C)(C)CC(C)(C)c1cc(Cc2cc(C(C)(C)CC(C)(C)C)cc(-n3nc4ccccc4n3)c2O)c(O)c(-n2nc3ccccc3n2)c1 [LA31, 2,2′-methylenebis[6-(2H-benzotriazole-2-yl)-4-(1,1,3,3-tetramethylbutyl)phenol]]","27,300 L/mol · cm","19,800 L/mol · cm","9,000 L/mol · cm","1,400 L/mol · cm",<50,<50,>10
"CCCCC(CC)C(=O)OCCOc1ccc(-c2nc(-c3ccccc3)nc(-c3ccccc3)n2)c(O)c1 (stereo not shown) [LA46, 2-(4,6-diphenyl-1,3,5-triazine-2-yl)-5-[2-(2-ethylhexanoyloxy)ethoxy]phenol]",10000 L/mol/cm,"3,000 L/mol · cm",160 L/mol/cm,<50 L/mol/cm,<30,<30,>10
"CC(C)(C)CC(C)(C)c1ccc(O)c(-n2nc3ccccc3n2)c1 [Sumisorb 340, 2-(2-hydroxy-5-tert-octylphenyl)benzotriazole]","13,100 L/mol · cm","7,700 L/mol · cm","2,200 L/mol · cm",320 L/mol/cm,<50,<50,>10
"CCC(C)(C)c1cc(-n2nc3ccccc3n2)c(O)c(C(C)(C)CC)c1 [Sumisorb 350, 2-(2-hydroxy-3,5-di-tert-pentylphenyl)benzotriazole]","13,900 L/mol · cm","9,700 L/mol · cm","4,800 L/mol · cm","1,200 L/mol · cm",210,<50,>10
